Measured values as given in ChEMBL document CHEMBL4665629, “An optimised series of substituted N-phenylpyrrolamides as DNA gyrase B inhibitors” (Eur J Med Chem, 2019).
≈ marks a conversion by molar mass, not a printed value.

Columns and labels:
[1] = Inhibition of Escherichia coli DNA topoisomerase 4
[2] = molecular target: T1, DNA gyrase (Escherichia coli, UniProt P0AES4+P0AES6); test: Inhibition of Escherichia coli DNA gyrase (A2B2 tetramer) incubated for 60 mins in presence of ATP by malachite green reagent based spectrophotometric analysis; assay type: protein-complex assay
[3] = tested on: Enterococcus faecalis; test: Antibacterial activity against Enterococcus faecalis ATCC 29212 assessed as bacterial growth inhibition by CLSI protocol based broth dilution or agar dilution method; assay type: functional
[4] = Inhibition of Escherichia coli DNA GyraseB incubated for 10 mins followed by ATP substrate addition by coupled spectrophotometric analysis
[5] = tested on: Escherichia coli; test: Antibacterial activity against Escherichia coli assessed as bacterial growth inhibition incubated for 18 to 24 hrs by alamar blue assay; assay type: functional; conditions: time hrs 18-24
[6] = tested on: Staphylococcus aureus; test: Antibacterial activity against Staphylococcus aureus assessed as bacterial growth inhibition incubated for 18 to 24 hrs by alamar blue assay; assay type: functional; conditions: time hrs 18-24
[7] = tested on: Escherichia coli; test: Antibacterial activity against efflux pump d effect ive Escherichia coli JW5503 harbouring tolC mutant assessed as bacterial growth inhibition at 50 uM incubated for 24 hrs by CLSI protocol based broth microdilution assay relative to control; assay type: functional
[8] = tested on: Escherichia coli; test: Antibacterial activity against outer membrane impaired Escherichia coli JD17464 harboring lpxC mutant assessed as bacterial growth inhibition at 50 uM incubated for 24 hrs by CLSI protocol based broth microdilution assay relative to control; assay type: functional
[9] = tested on: Pseudomonas aeruginosa; test: Antibacterial activity against Pseudomonas aeruginosa ATCC 27853 assessed as bacterial growth inhibition at 50 uM incubated for 24 hrs by CLSI protocol based broth microdilution assay relative to control; assay type: functional
[10] = tested on: Staphylococcus aureus; test: Antibacterial activity against Staphylococcus aureus ATCC 29213 assessed as bacterial growth inhibition at 50 uM incubated for 24 hrs by CLSI protocol based broth microdilution assay relative to control; assay type: functional
[11] = tested on: Klebsiella pneumoniae; test: Antibacterial activity against Klebsiella pneumoniae ATCC 700603 assessed as bacterial growth inhibition at 50 uM incubated for 24 hrs by CLSI protocol based broth microdilution assay relative to control; assay type: functional
[12] = tested on: Escherichia coli; test: Antibacterial activity against Escherichia coli ATCC 25922 assessed as bacterial growth inhibition at 50 uM incubated for 24 hrs by CLSI protocol based broth microdilution assay relative to control; assay type: functional
[13] = tested on: Enterococcus faecium; test: Antibacterial activity against Enterococcus faecium ATCC 35667 assessed as bacterial growth inhibition at 50 uM incubated for 24 hrs by CLSI protocol based broth microdilution assay relative to control; assay type: functional
[14] = tested on: Enterococcus faecalis; test: Antibacterial activity against Enterococcus faecalis ATCC 29212 assessed as bacterial growth inhibition at 50 uM incubated for 24 hrs by CLSI protocol based broth microdilution assay relative to control; assay type: functional
[15] = tested on: Klebsiella aerogenes; test: Antibacterial activity against Enterobacter aerogenes ATCC 13408 assessed as bacterial growth inhibition at 50 uM incubated for 24 hrs by CLSI protocol based broth microdilution assay relative to control; assay type: functional
[16] = tested on: Acinetobacter baumannii; test: Antibacterial activity against Acinetobacter baumannii ATCC 19606 assessed as bacterial growth inhibition at 50 uM incubated for 24 hrs by CLSI protocol based broth microdilution assay relative to control; assay type: functional; conditions: ATCC 19606 = CIP 70.34 = JCM 6841
[17] = tested on: Escherichia coli; test: Antibacterial activity against efflux pump d effect ive Escherichia coli JW5503 harbouring tolC mutant assessed as minimum inhibitory concentration required for >=90% inhibition of bacterial growth by CLSI protocol based broth microdilution assay; assay type: functional
[18] = tested on: Staphylococcus aureus; test: Antibacterial activity against Staphylococcus aureus ATCC 29213 assessed as minimum inhibitory concentration required for >=90% inhibition of bacterial growth by CLSI protocol based broth microdilution assay; assay type: functional
[19] = tested on: Enterococcus faecalis; test: Antibacterial activity against Enterococcus faecalis ATCC 29212 assessed as minimum inhibitory concentration required for >=90% inhibition of bacterial growth by CLSI protocol based broth microdilution assay; assay type: functional
[20] = molecular target: Topoisomerase IV (Staphylococcus aureus) (UniProt P0C1U9+P0C1S7); test: Inhibition of Staphylococcus aureus DNA topoisomerase 4 assessed as residual activity at 1 uM using biotinylated oligonucleotide as substrate incubated for 30 mins in presence of ATP by fluorescence-based microplate reader assay relative to control; assay type: protein-complex assay
[21] = Inhibition of Escherichia coli DNA topoisomerase 4 assessed as residual activity at 1 uM using biotinylated oligonucleotide as substrate incubated for 30 mins in presence of ATP by fluorescence-based microplate reader assay relative to control
[22] = molecular target: DNA gyrase (Staphylococcus aureus) (UniProt P0A0K8+P20831); test: Inhibition of Staphylococcus aureus DNA gyrase assessed as residual activity at 1 uM using biotinylated oligonucleotide as substrate incubated for 30 mins in presence of ATP by fluorescence-based microplate reader assay relative to control; assay type: protein-complex assay
[23] = molecular target: T1, DNA gyrase; test: Inhibition of Escherichia coli DNA gyrase using biotinylated oligonucleotide as substrate incubated for 30 mins in presence of ATP by fluorescence-based microplate reader assay; assay type: protein-complex assay
[24] = tested on: Escherichia coli; test: Antibacterial activity against Escherichia coli MG1655 harboring GyrB R136C mutant assessed as minimum inhibitory concentration required for >=90% inhibition of bacterial growth in presence of 50 ug/ml phenylalanine-arginine beta-naphthylamide; assay type: functional
[25] = tested on: Escherichia coli; test: Antibacterial activity against Escherichia coli MG1655 harboring […] mutant assessed as minimum inhibitory concentration required for >=90% inhibition of bacterial growth in presence of 50 ug/ml phenylalanine-arginine beta-naphthylamide; assay type: functional
[26] = tested on: Escherichia coli; test: Antibacterial activity against Escherichia coli MG1655 harboring […]/D87N mutant assessed as minimum inhibitory concentration required for >=90% inhibition of bacterial growth in presence of 50 ug/ml phenylalanine-arginine beta-naphthylamide; assay type: functional
[27] = tested on: Escherichia coli; test: Antibacterial activity against Escherichia coli MG1655 harboring […]/D87N and ParC S80I mutants assessed as minimum inhibitory concentration required for >=90% inhibition of bacterial growth in presence of 50 ug/ml phenylalanine-arginine beta-naphthylamide; assay type: functional
[28] = tested on: Escherichia coli; test: Antibacterial activity against Escherichia coli MG1655 harboring […]/D87N and ParC S80I/E84G mutants assessed as minimum inhibitory concentration required for >=90% inhibition of bacterial growth in presence of 50 ug/ml phenylalanine-arginine beta-naphthylamide; assay type: functional
[29] = tested on: Klebsiella pneumoniae; test: microbe, parasite or virus in culture; conditions: 700603
[30] = tested on: Klebsiella aerogenes; test: microbe, parasite or virus in culture; conditions: ATCC 13408
[31] = tested on: Acinetobacter baumannii; test: microbe, parasite or virus in culture; conditions: ATCC 19606 = CIP 70.34 = JCM 6841

Sequence of DNA gyrase (Staphylococcus aureus) (P0A0K8 2-644 limits assumed): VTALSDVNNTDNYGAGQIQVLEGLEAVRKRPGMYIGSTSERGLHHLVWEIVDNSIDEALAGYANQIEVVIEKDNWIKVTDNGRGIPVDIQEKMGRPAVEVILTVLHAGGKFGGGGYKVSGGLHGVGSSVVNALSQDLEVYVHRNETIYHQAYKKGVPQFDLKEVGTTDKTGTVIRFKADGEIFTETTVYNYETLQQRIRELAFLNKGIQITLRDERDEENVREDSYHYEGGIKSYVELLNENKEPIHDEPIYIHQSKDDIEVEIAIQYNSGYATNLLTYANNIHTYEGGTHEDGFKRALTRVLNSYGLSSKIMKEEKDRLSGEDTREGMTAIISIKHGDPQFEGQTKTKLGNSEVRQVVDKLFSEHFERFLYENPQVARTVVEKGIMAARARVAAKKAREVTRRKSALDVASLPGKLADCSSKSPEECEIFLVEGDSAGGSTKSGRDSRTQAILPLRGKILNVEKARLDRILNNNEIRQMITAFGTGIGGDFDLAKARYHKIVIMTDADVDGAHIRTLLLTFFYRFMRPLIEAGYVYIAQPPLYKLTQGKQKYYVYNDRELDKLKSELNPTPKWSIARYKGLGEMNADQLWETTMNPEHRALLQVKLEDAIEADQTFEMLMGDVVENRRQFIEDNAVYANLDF
Sequence of DNA gyrase (Staphylococcus aureus) (P20831 whole entry partner): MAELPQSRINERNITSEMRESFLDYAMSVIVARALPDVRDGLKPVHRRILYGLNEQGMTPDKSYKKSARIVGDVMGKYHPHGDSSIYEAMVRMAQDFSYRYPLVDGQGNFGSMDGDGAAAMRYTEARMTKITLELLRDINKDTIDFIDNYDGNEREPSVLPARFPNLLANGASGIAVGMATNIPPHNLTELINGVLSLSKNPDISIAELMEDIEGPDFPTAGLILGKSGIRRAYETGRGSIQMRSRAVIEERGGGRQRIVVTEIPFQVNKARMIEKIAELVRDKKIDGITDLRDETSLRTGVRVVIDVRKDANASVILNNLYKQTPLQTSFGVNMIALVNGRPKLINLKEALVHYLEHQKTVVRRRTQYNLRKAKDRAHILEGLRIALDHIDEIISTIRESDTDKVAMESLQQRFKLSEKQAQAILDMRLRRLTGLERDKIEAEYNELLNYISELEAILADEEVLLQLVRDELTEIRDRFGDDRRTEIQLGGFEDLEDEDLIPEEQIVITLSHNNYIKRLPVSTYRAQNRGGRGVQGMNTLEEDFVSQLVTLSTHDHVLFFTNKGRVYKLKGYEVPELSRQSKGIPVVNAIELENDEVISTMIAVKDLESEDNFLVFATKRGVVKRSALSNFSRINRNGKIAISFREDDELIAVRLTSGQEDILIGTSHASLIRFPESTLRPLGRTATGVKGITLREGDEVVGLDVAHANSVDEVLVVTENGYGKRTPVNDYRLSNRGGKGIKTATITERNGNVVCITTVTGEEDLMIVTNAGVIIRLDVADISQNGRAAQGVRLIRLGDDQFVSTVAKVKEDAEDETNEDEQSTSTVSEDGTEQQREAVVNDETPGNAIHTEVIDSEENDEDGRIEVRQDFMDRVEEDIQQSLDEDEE

SMILES: CCNC(=O)Nc1nc2cc(-c3cnc(N4CCC(C)(C(=O)O)CC4)nc3)cc(-c3ccccn3)c2s1
- IC50 [1]: 46 nM
- IC50 [2]: 4.1 nM
- MIC [3]: 0.03 µg/mL (≈ 0.058 µM)

SMILES: CNc1cc(F)cc2c1[nH]c1nc(Oc3cnc(C)nc3)nc(N3C[C@@H]4[C@H](N)C[C@]4(C)C3)c12
- IC50 [4]: 0.3 nM
- MIC [5]: 0.06 µg/mL (≈ 0.134 µM)
- MIC [6]: 0.002 µg/mL (≈ 0.00446 µM)

SMILES: Cc1[nH]c(C(=O)Nc2ccc(-n3nn[nH]c3=O)cc2)c(Cl)c1Cl
- inhibition at 50 µM [7]: 100%
- inhibition at 50 µM [8]: -1%
- inhibition at 50 µM [9]: -3%
- inhibition at 50 µM [10]: 99%
- inhibition at 50 µM [11]: -2%
- inhibition at 50 µM [12]: 3%
- inhibition at 50 µM [13]: 53%
- inhibition at 50 µM [14]: 99%
- inhibition at 50 µM [15]: -2%
- inhibition at 50 µM [16]: 1%
- MIC [17]: 3.13 µM (≈ 1.11 µg/mL)
- MIC [18]: 50 µM (≈ 17.7 µg/mL)
- MIC [19]: 12.5 µM (≈ 4.41 µg/mL)
- Activity [20]: 85%
- Activity [21]: 94%
- Activity [22]: 47%
- IC50 [23]: 77 nM

SMILES: O=C(O)c1cn(C2CC2)c2cc(N3CCNCC3)c(F)cc2c1=O [CIPROFLOXACIN]
- MIC [24]: 0.01 µM
- MIC [25]: 0.01 µM
- MIC [26]: 0.19 µM
- MIC [27]: 8 µM
- MIC [28]: > 32 µM
- MIC [29]: 0.05 µM (≈ 0.0166 µg/mL)
- MIC [30]: 0.113 µM (≈ 0.0374 µg/mL)
- MIC [31]: 3.62 µM (≈ 1.2 µg/mL)
